Experimental findings from BindingDB's records for patent WO2025054369 (NICO Therapeutics, 2025) are described below.

A word on the IC50: it is the concentration that gives 50% inhibition. Low readings indicate higher potency, high ones lower potency.

The target in the assay is T1, NAD(+) hydrolase SARM1 (Homo sapiens, UniProt Q6SZW1).
T1 sequence (Q6SZW1 whole entry): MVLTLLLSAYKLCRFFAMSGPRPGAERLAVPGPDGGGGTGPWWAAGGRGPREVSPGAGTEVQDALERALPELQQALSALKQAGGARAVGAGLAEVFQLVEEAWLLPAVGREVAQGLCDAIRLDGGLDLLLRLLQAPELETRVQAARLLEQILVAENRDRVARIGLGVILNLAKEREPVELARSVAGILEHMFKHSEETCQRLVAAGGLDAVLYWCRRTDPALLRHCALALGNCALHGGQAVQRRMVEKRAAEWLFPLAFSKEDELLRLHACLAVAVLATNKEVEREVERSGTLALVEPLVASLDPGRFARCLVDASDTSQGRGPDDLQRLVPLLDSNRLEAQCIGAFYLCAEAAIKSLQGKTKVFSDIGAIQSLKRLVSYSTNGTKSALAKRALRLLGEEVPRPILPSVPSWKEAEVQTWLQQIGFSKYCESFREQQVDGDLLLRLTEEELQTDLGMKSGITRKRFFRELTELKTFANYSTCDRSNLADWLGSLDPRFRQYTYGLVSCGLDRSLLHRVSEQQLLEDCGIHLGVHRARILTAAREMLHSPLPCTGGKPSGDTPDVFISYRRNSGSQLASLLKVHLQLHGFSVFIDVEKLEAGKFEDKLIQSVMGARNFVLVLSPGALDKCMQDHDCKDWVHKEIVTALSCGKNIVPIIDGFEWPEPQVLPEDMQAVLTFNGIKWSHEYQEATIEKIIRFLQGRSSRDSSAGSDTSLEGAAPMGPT
Kind of assay: Biochemical Assay of the Compounds. On the procedure: Preparation of full-length SARM1 (FL-SARM1) lysate: HEK293T cells (ATCC: CRL-3216) were grown on 150 mm TC-treated dishes to 80-90% confluency in complete DMEM (DMEM (Thermo Fisher: 11965175) supplemented with 10% HI-FBS (VWR: 10802-772), 1x Pen/Strep (Thermo Fisher: 15140122), 1x NEAA (Thermo Fisher: 1140050), 1x glutamax (Thermo Fisher: 35050061), and 1 mM sodium pyruvate (Thermo Fisher: 11360070)) at 37 °C and 5% CO2. One hour prior to transfection, the media was replaced with fresh, 37 °C complete DMEM (20 mL per one 150 mm dish) supplemented with additional 10mM glucose (Alfa Aesar AAJ60067EQE). Per one 150 mm dish, 30 µg FL-SARM1 (SEQ. ID.1; cloned in-house) plasmid was dissolved in 1 mL DMEM at ambient temperature and were mixed by inverting the tube 8-10 times.90 µL of GenJet™ in vitro DNA transfection reagent (Ver2) was dissolved in 1 mL DMEM at ambient temperature and were mixed by inverting the tube 8-10 times. The plasmid and transfection agent solutions were combined, mixed by 8-10 inversions and incubated for 10 minutes at ambient temperature.2 mL of this transfection mixture was added to each dish containing HEK293T cells as prepared above followed by a gentle mixing of 4-5 horizontal rotations. The dishes were incubated at 37 °C and 5% CO2 for 24 h. The dishes were removed from the incubator, the medium was aspirated and the cells were scraped off using cell scrapers in ice-cold 1x PBS (5 mL/dish, Thermo Fisher Scientific 10010023). The collected cells were centrifuged at 300 g for 5 minutes at 4 °C. The supernatant was aspirated and the pellet was frozen at -80 °C until needed. The cell pellet from 30 dishes was dissolved in 30 mL 1x PBS supplemented with 4 tablets of Complete, Mini EDTA-free protease inhibitor cocktail at 4 °C. This mixture was sonicated on ice for 10 minutes at 50% amplitude with a 1 second on/1 second off interval using a Model 120 sonicator (Thermo Fisher Scientific, FB120110). The lysate was centrifuged at 16000 g for 10 minutes at 4 °C.
In turn, `CC1CC2CC(C1)N2C(=O)Nc1ccc(Cl)c([C@@H]2CC[C@H]2n2ccnn2)c1` (relative stereo) [WO2025054369, Example 27] showed an IC50 of less than 1000 nM.
Regarding `CC1CC2CC(C1)N2C(=O)Nc1ccc(Cl)c([C@@H]2CC[C@@H]2n2ccnn2)c1` (relative stereo) [WO2025054369, Example 28], the IC50 was less than 1000 nM.
In turn, `CC1CC2CC(C1)N2C(=O)Nc1ccc(Cl)c([C@@H]2CC[C@H]2n2nccn2)c1` (relative stereo) [WO2025054369, Example 29] returned a concentration for half-maximal inhibition (IC50) of 5500 nM.
`CC1CC2CC(C1)N2C(=O)Nc1ccc(Cl)c([C@@H]2CC[C@@H]2n2nccn2)c1` (relative stereo) [WO2025054369, Example 30]: the IC50 was less than 1000 nM.
`CC1CC2CC(C1)N2C(=O)Nc1ccc(Cl)c([C@@H]2CC[C@H]2n2cnnc2)c1` (relative stereo) [WO2025054369, Example 31] came in with an IC50 of less than 1000 nM.
Next, `N#C[C@H]1CC[C@H]1c1cc(NC(=O)N2C3CCC2CC(C(F)(F)F)C3)ccc1Cl` (relative stereo; form 1) [WO2025054369, Example 44]: less than 1000 nM; `N#C[C@H]1CC[C@H]1c1cc(NC(=O)N2C3CCC2CC(C(F)(F)F)C3)ccc1Cl` (relative stereo; form 2) [WO2025054369, Example 45]: 5500 nM; `Cc1nnc(C23CC(C)CC(C2)N3C(=O)Nc2ccc(Cl)c(C3CCC3)c2)o1` (stereo not drawn) [WO2025054369, Example 1]: less than 1000 nM.
Next, `Cc1nnc(C23CC(C)CC(C2)N3C(=O)Nc2ccc(C(F)(F)F)c(C3CCC3)c2)o1` (stereo not drawn) [WO2025054369, Example 2]: less than 1000 nM; `Cc1nnc(C23CC(C)CC(C2)N3C(=O)Nc2ccc(Cl)c([C@@H]3CC[C@@H]3C#N)c2)o1` (stereo partly drawn) [WO2025054369, Example 3]: less than 1000 nM.
To `Cc1nnc(C23CC(C)CC(C2)N3C(=O)Nc2ccc(Cl)c([C@H]3CC[C@H]3C#N)c2)o1` (stereo partly drawn) [WO2025054369, Example 4] belongs less than 1000 nM; to `Cc1ccc(NC(=O)N2C3CC(C)CC2C3)cc1C(C)C#N` (stereo not drawn) [WO2025054369, Example 5], less than 1000 nM.
Molecule `Cc1ccc(NC(=O)N2C3CC(C)CC2C3)cc1C1CCC1C#N` (stereo not drawn) [WO2025054369, Example 6] came in with an IC50 of less than 1000 nM.
With `Cc1ccc(NC(=O)N2C3CC(C)CC2C3)cc1[C@@H]1CC[C@@H]1C#N` (stereo partly drawn) [WO2025054369, Example 7], the IC50 is less than 1000 nM.
`Cc1ccc(NC(=O)N2C3CC(C)CC2C3)cc1[C@H]1CC[C@H]1C#N` (stereo partly drawn) [WO2025054369, Example 8] came in with an IC50 of less than 1000 nM.
The molecule `CC1CC2CC(C1)N2C(=O)Nc1ccc(Cl)c([C@@H]2CC[C@@H]2C#N)c1` (stereo partly drawn) [WO2025054369, Example 9] returned a concentration for half-maximal inhibition (IC50) of less than 1000 nM.
In the case of `CC1CC2CC(C1)N2C(=O)Nc1ccc(Cl)c([C@H]2CC[C@H]2C#N)c1` (stereo partly drawn) [WO2025054369, Example 10], the IC50 is less than 1000 nM.
To `Cc1ccc(NC(=O)CC2CCC2)cc1C1CCC1` [WO2025054369, Example 11] belongs more than 10000 nM.
For the molecule `Cc1ccc(NC(=O)N2C3CCCC2C3)cc1C1CCC1` [WO2025054369, Example 12], half-maximal inhibition (IC50) was put at 5500 nM. In other words, the single-digit micromolar range.
With `Cc1ccc(NC(=O)N2C3CCCC2C3)cc1CC1CC1` [WO2025054369, Example 13], 5500 nM corresponded to half-maximal inhibition (IC50).
To `Cc1ccc(NC(=O)N2C3CCCC2C3)cc1C1CC(=O)N(C)C1` (stereo not drawn) [WO2025054369, Example 14] belongs 5500 nM; to `Cc1ccc(NC(=O)N2C3CCCC2C3)cc1C1CN(C)C1` [WO2025054369, Example 15], 5500 nM.
To `Cc1nnc(C23CC(C)CC(C2)N3C(=O)Nc2ccc(Cl)c([C@@H]3C[C@@H]3C#N)c2)o1` (stereo partly drawn) [WO2025054369, Example 16] belongs 5500 nM; to `Cc1nnc(C23CC(C)CC(C2)N3C(=O)Nc2ccc(Cl)c([C@H]3C[C@H]3C#N)c2)o1` (stereo partly drawn) [WO2025054369, Example 17], less than 1000 nM.
To `CC1CC2CC(C1)N2C(=O)Nc1ccc(Cl)c(C2CCC2)c1` (stereo not drawn) [WO2025054369, Example 18] belongs less than 1000 nM.
Turning to `CC1CC2CC(C1)N2C(=O)Nc1ccc(Cl)c(C2(F)CCC2)c1` (stereo not drawn) [WO2025054369, Example 19], the IC50 is less than 1000 nM.
To `CC1CC2CC(C1)N2C(=O)Nc1ccc(Cl)c(C23CC(C2)C3)c1` (stereo not drawn) [WO2025054369, Example 20] belongs less than 1000 nM; to `Cc1ccc(NC(=O)CC2CCC2)cc1C1CC1` [WO2025054369, Example 21], more than 10000 nM; to `Cc1ccc(NC(=O)N2C3CCCC2C3)cc1C1CC1` [WO2025054369, Example 22], 5500 nM.
In turn, `Cc1ccc(NC(=O)N2C3CC(C)CC2C3)cc1C12CC(F)(C1)C2` (stereo not drawn) [WO2025054369, Example 23] had a 50% inhibitory concentration (IC50) of less than 1000 nM.
As to `Cc1ccc(NC(=O)N2C3CCCC2C3)cc1C12CC(C)(C1)C2` [WO2025054369, Example 24], the IC50 was less than 1000 nM.
Next, `Cc1nnc(C23CC(C)CC(C2)N3C(=O)Nc2ccc(C(F)(F)F)c(C3CC(F)(F)C3)c2)o1` (stereo not drawn) [WO2025054369, Example 25]: less than 1000 nM; `Cc1ccc(NC(=O)N2C3CCCC2C3)cc1C1CN(CC(F)(F)F)C1` [WO2025054369, Example 26]: 5500 nM; `N#C[C@H]1CC[C@H]1c1cc(NC(=O)N2C3CC2CC(C(F)(F)F)C3)ccc1Cl` (stereo partly drawn) [WO2025054369, Example 32]: less than 1000 nM.
Molecule `N#C[C@@H]1CC[C@@H]1c1cc(NC(=O)N2C3CC2CC(C(F)(F)F)C3)ccc1Cl` (stereo partly drawn) [WO2025054369, Example 33] gave an IC50 of less than 1000 nM.
Next, `CC1CC2CC(C1)N2C(=O)Nc1cc(F)c(Cl)c([C@@H]2CC[C@@H]2C#N)c1` (stereo partly drawn) [WO2025054369, Example 34]: less than 1000 nM; `CC1CC2CC(C1)N2C(=O)Nc1cc(F)c(Cl)c([C@H]2CC[C@H]2C#N)c1` (stereo partly drawn) [WO2025054369, Example 35]: less than 1000 nM.
Next, `CC1CC2CC(C1)N2C(=O)Nc1ccc(Cl)c([C@H]2C[C@H](O)C2)c1` (stereo partly drawn) [WO2025054369, Example 36]: less than 1000 nM; `CC1CC2CC(C1)N2C(=O)Nc1ccc(Cl)c([C@H]2C[C@@H](O)C2)c1` (stereo partly drawn) [WO2025054369, Example 37]: less than 1000 nM; `CC1CC2CC(C1)N2C(=O)Nc1ccc(Cl)c(C2CC(C)(O)C2)c1` (stereo not drawn) [WO2025054369, Example 38]: less than 1000 nM.
Next, `CC1CC2CC(C1)N2C(=O)Nc1ccc(Cl)c([C@@H]2CC[C@@H]2C(F)F)c1` (stereo partly drawn) [WO2025054369, Example 40]: less than 1000 nM; `CC1CC2CC(C1)N2C(=O)Nc1ccc(Cl)c([C@H]2CC[C@H]2C(F)F)c1` (stereo partly drawn) [WO2025054369, Example 41]: 5500 nM; `O=C(Nc1ccc(Cl)c([C@H]2C[C@H](O)C2)c1)N1C2CC1CC(C(F)(F)F)C2` (stereo partly drawn) [WO2025054369, Example 42]: less than 1000 nM.
In turn, `O=C(Nc1ccc(Cl)c([C@H]2C[C@@H](O)C2)c1)N1C2CC1CC(C(F)(F)F)C2` (stereo partly drawn) [WO2025054369, Example 43] yielded a half-inhibitory concentration (IC50) of less than 1000 nM.
Molecule `CC1CC2CC(C1)N2C(=O)Nc1ccc(Cl)c([C@@H]2CC[C@]2(C)O)c1` (stereo partly drawn) [WO2025054369, Example 46] showed an IC50 of less than 1000 nM.
Next, `CC1CC2CC(C1)N2C(=O)Nc1ccc(Cl)c([C@H]2CC[C@@]2(C)O)c1` (stereo partly drawn) [WO2025054369, Example 47]: more than 10000 nM; `CC1CC2CC(C1)N2C(=O)Nc1ccc(Cl)c([C@H]2C[C@H](F)C2)c1` (stereo partly drawn) [WO2025054369, Example 48]: less than 1000 nM; `CC1CC2CC(C1)N2C(=O)Nc1ccc(Cl)c([C@H]2C[C@@H](F)C2)c1` (stereo partly drawn) [WO2025054369, Example 49]: less than 1000 nM.
